The test system of one assay is U937 cells. As to the kind of experiment: Cellular assay in U937 cells: activity of RIPK1 inhibitors on TNFα/zVAD.fmk-induced cell death (necroptosis), CellTiter 96 AQueous (MTS) readout. It is filed as cell-based. The conditions noted are these: Homo sapiens, U-937. An excerpt: Upon TNF-Receptor I ligation, Ser/Thr kinase RIPK1 is recruited to a transient receptor complex 1. Upon modification of RIPK1 which promotes activation of RIPK1, complex IIb can form, that involves recruitment of RIPK3 and MLKL (mixed lineage-kinase domain-like protein) which then translocates from the cytosol to the plasma membrane to execute cell death (Cai, Z. et al, Nat. Cell Biol. (2014) 16:55-65).
Cell death was quantified in 96 well plates by determination of the amount of live cell using a CellTiter 96 AQueous reagent (Promega), a calorimetric method to measure the number of live cells by reducing tetrazolium compound [3-(4,5-dimethylthiazol-2-yl)-5-(3-carboxymethoxyphenyl)-2-(4-sulfophenyl)-2H-tetrazolium, inner salt; MTS] into formazan. Absorbance of formazan was read at 490 nm. The inhibitory activity of the test compound was quantified in a concentration response curve (CRC) experiment.
Compounds were obtained as 10 mM stock solutions and were diluted 1 to 10 volumes with DMSO to yield a 1 mM solution. From this solution 2 μl were diluted with 998 μl growth medium. 100 μl of 2 μM compound solution was further diluted sequentially with a dilution factor of 2.5 by adding 150 μl growth medium. A total of 10 concentrations were tested ranging from 10 μM to 0.26 nM or from 1 μM to 0.07 nM.
U937 cells were cultured in RPMI1640 Glutamax and 10% heat inactivated FBS. 50 μl cell suspension containing 1×10^6 cells/ml supplemented with 50 μM zVAD.fmk (Benzyloxycarbonyl-Val-Ala-Asp (OMe) fluoromethylketone) and 100 ng/ml recombinant human TNF[…] were dispensed in each well of a 96-well plate. 50 μl of compound dilutions (described in Cellular assay in U937 cells) were added and the cell suspension incubated overnight (18 to 24 hrs) at 37° C., 5% CO2 in a humidified atmosphere (95% rH). High (no compound) and low control (no TNF[…], zVAD.fmk) were tested with 7 replicates; all compound concentrations were tested in duplicates on each experimental plate.
CellTiter 96 Aqueous reagent was mixed (100 μl PMS (phenazine methosulfate) solution/2 ml MTS (3-(4,5-[…])-5-(3-carboxymethoxyphenyl)-2-(4-sulfophenyl)-2H-tetrazolium, inner salt) solution) and 20 μl were added per well. After 4 hrs incubation at 37° C. (5% CO2 95% rH) optical density was measured at 490 nm on a microplate reader (Tecan Infinite M1000).
The % inhibition is expressed as percentage of the maximal inhibition value obtained in the absence of TNFα/zVAD.fmc.

Assay [1] has as its target T1, hRIPK1 (aa 1-375) fusion protein (Homo sapiens, UniProt Q13546).
T1 construct: hRIPK1 (aa 1-375) fusion protein
T1 sequence (Q13546 1-375): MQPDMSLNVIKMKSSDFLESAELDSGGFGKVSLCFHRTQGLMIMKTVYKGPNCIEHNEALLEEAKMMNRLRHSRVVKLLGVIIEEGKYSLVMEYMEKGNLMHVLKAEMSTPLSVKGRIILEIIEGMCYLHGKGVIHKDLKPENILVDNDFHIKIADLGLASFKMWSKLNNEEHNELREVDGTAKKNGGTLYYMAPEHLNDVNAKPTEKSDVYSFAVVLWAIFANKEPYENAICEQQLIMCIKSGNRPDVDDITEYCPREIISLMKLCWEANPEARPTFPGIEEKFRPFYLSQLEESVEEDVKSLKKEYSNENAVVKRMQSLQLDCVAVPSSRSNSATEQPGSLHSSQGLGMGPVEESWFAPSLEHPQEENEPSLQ
Nature of the assay: ADP-Glo kinase assay: catalytic activity of RIPK1 (autophosphorylation, conversion of ATP to ADP). The class given is biochemical. How it is done: The catalytic activity of RIPK1 was measured by monitoring the conversion of Adenosine triphosphate (ATP) to Adenosine diphosphate (ADP) due to autophosphorylation using an ADP-Glo kinase kit (Promega, catalog no. V9104).
In detail, 2 μl recombinantly produced hRIPK1 (aa 1-375) fusion protein (end concentration 3.6 μg/ml) and 2 μl compound (end concentration 33300-1.69 nM; DMSO end concentration 1%) were incubated for 30 minutes at room temperature and then 2 μl ATP (ADP Glo kit, end concentration 50 μM) were added. After another 240 minutes incubation at room temperature, 5 μl Promega ADP-Glo reagent I was added to quench the reaction and deplete unconsumed ATP. After an incubation period of 30 minutes, 10 μl Promega ADP-Glo detection reagent II was added resulting in conversion of ADP to ATP, which generates a light-reaction between luciferase and luciferin. Luminescence was quantified after 30 minutes with a Pherastar FS (BMG LABTECH, Ortenberg).
The adjustment was obtained by nonlinear regression using the Levenberg Marquardt algorithm.

Regarding `Cc1ncc(F)cc1C[C@H]1CC[C@H](C(=O)N2OCC[C@H]2c2cc(F)cc(C#N)c2)CC1` [compound 181, trans-3-fluoro-5-[(3S)-2-[4-[(5-fluoro-2-methyl-3-pyridyl)methyl]cyclohexanecarbonyl]isoxazolidin-3-yl]benzonitrile], the IC50 – broadly, the point on the concentration scale where inhibition reaches its midpoint – in the assay with U937 cells is 2 nM; in assay [1] it was 26 nM.

As for `N#Cc1cc(F)cc([C@@H]2CCON2C(=O)[C@H]2CC[C@H](Cn3ccc4ncc(OCCO)cc43)CC2)c1` [compound 153, trans-3-fluoro-5-[(3S)-2-[4-[[6-(2-hydroxyethoxy)pyrrolo[3,2-b]pyridin-1-yl]methyl]cyclohexanecarbonyl]isoxazolidin-3-yl]benzonitrile], the IC50 in the assay with U937 cells stood at 3 nM; in assay [1] it was 6 nM.

As to `Cc1nc2c(C)cc(C[C@H]3CC[C@H](C(=O)N4OCC[C@H]4c4cc(F)cc(C#N)c4)CC3)cn2n1` [compound 288, trans-3-[(3S)-2-[4-[(2,8-dimethyl-[1,2,4]triazolo[1,5-a]pyridin-6-yl)methyl]cyclohexanecarbonyl]isoxazolidin-3-yl]-5-fluoro-benzonitrile], the IC50 in the assay on U937 cells is 4 nM; in assay [1], 17 nM.

As to `O=C([C@H]1CC[C@H](Cc2ccc(C3(O)COC3)cc2)CC1)N1OCC[C@H]1c1cnccn1` [compound 352, trans-[4-[[4-(3-hydroxyoxetan-3-yl)phenyl]methyl]cyclohexyl]-[(3S)-3-pyrazin-2-yl-1,2-oxazolidin-2-yl]methanone], the IC50 with U937 cells is 58 nM; in assay [1], 30 nM.

With `Cc1cnc([C@@H]2CCON2C(=O)[C@H]2CC[C@H](Cc3cc(C)ncc3C)CC2)cn1` [compound 339, trans-[4-[(2,5-dimethylpyridin-4-yl)methyl]cyclohexyl]-[(3S)-3-(5-methylpyrazin-2-yl)-1,2-oxazolidin-2-yl]methanone], the IC50 in the assay on U937 cells was found to be 16 nM; in assay [1], 25 nM.

Consider `N#Cc1cnc2ccn(C[C@H]3CC[C@H](C(=O)N4OCC[C@H]4c4cncc(F)c4)CC3)c2c1` [compound 3, trans-1-((4-((S)-3-(5-fluoropyridin-3-yl)isoxazolidine-2-carbonyl)cyclohexyl)methyl)-1H-pyrrolo[3,2-b]pyridine-6-carbonitrile], for which the IC50 worked out at 18 nM with U937 cells and 22 nM in assay [1].

Take `N#Cc1cc(F)cc([C@@H]2CCON2C(=O)[C@H]2CC[C@H](Cn3ccc4cc(F)ccc43)CC2)c1` [compound 95, trans-3-fluoro-5-((S)-2-(4-((5-fluoro-1H-indol-1-yl)methyl)cyclohexane-1-carbonyl)isoxazolidin-3-yl)benzonitrile]: the IC50 with U937 cells is 4 nM; in assay [1] it was 22 nM.

Consider `N#Cc1cc(F)cc([C@@H]2CCON2C(=O)[C@H]2CC[C@H](Cc3ccc(F)c(C(N)=O)c3)CC2)c1` [compound 195, trans-5-[[4-[(3S)-3-(3-cyano-5-fluoro-phenyl)isoxazolidine-2-carbonyl]cyclohexyl]methyl]-2-fluoro-benzamide], for which the values for the IC50 (in the assay on U937 cells; in assay [1]) were 6 nM and 12 nM, respectively.

Take `COc1cncc([C@@H]2CCON2C(=O)[C@H]2CC[C@H](Cn3ncc4ncc(C#N)cc43)CC2)n1` [compound 186, trans-1-[[4-[(3S)-3-(6-methoxypyrazin-2-yl)isoxazolidine-2-carbonyl]cyclohexyl]methyl]pyrazolo[4,3-b]pyridine-6-carbonitrile]: the figures for the IC50 (in the assay with U937 cells; in assay [1]) were 39 nM and 23 nM, respectively.

Consider `Cc1cn2ncc(C[C@H]3CC[C@H](C(=O)N4OCC[C@H]4c4cccc(C#N)c4)CC3)cc2n1` [compound 322, [2-cyano-4-[(3S)-2-[4-[(2-methylimidazo[1,2-b]pyridazin-7-yl)methyl]cyclohexanecarbonyl]isoxazolidin-3-yl]phenyl]], for which the IC50 with U937 cells worked out at 27 nM; in assay [1], 37 nM.

Regarding `N#Cc1cc(F)cc([C@@H]2CCON2C(=O)[C@H]2CC[C@H](Cc3ccc4c(c3)C(=O)NC4)CC2)c1` [compound 144, trans-3-fluoro-5-[(3S)-2-[4-[(3-oxoisoindolin-5-yl)methyl]cyclohexanecarbonyl]isoxazolidin-3-yl]benzonitrile], the IC50 in the assay on U937 cells is 3 nM; in assay [1] it was 22 nM.

With `NC(=O)c1cc(C[C@H]2CC[C@H](C(=O)N3OCC[C@H]3c3ccc(F)cc3)CC2)ccc1F` [compound 191, trans-2-fluoro-5-[[4-[(3S)-3-(4-fluorophenyl)isoxazolidine-2-carbonyl]cyclohexyl]methyl]benzamide], the IC50 in the assay with U937 cells came out at 9 nM; in assay [1], 10 nM.

Consider `Cc1nc2ccc(C[C@H]3CC[C@H](C(=O)N4OCC[C@H]4c4cncc(C#N)c4)CC3)cn2n1` [compound 262, trans-5-[(3S)-2-[4-[(2-methyl-[1,2,4]triazolo[1,5-a]pyridin-6-yl)methyl]cyclohexanecarbonyl]isoxazolidin-3-yl]pyridine-3-carbonitrile], for which the IC50 with U937 cells was 67 nM; in assay [1], 34 nM.

With `N#Cc1cncc([C@@H]2CCON2C(=O)[C@H]2CC[C@H](Cn3cc(C#N)ccc3=O)CC2)c1` [compound 122, trans-1-[[4-[(3S)-3-(5-cyano-3-pyridyl)isoxazolidine-2-carbonyl]cyclohexyl]methyl]-6-oxo-pyridine-3-carbonitrile], the IC50 stood at 797 nM in the assay with U937 cells and 125 nM in assay [1].

Take `Cc1ncn(C[C@H]2CC[C@H](C(=O)N3OCC[C@H]3c3cncc(F)c3)CC2)c1C#N` [compound 4, trans-1-((4-((S)-3-(5-fluoropyridin-3-yl)isoxazolidine-2-carbonyl)cyclohexyl)methyl)-4-methyl-1H-imidazole-5-carbonitrile]: the IC50 in the assay with U937 cells was 721 nM; in assay [1], 116 nM.

In assay [1], `COc1cc(C[C@H]2CC[C@H](C(=O)N3OCC[C@H]3c3csc(C)n3)CC2)cn2nc(C)nc12` [compound 367, trans-[4-(8-Methoxy-2-methyl-[1,2,4]triazolo[1,5-a]pyridin-6-ylmethyl)-cyclohexyl]-[(S)-3-(2-methyl-thiazol-4-yl)-isoxazolidin-2-yl]-methanone] gave an IC50 of 94 nM.

In assay [1], `Cc1cnc([C@@H]2CCON2C(=O)[C@H]2CC[C@H](Cc3cnc4c(C)nn(C)c4c3)CC2)cn1` [compound 410, [4-[(1,3-dimethylpyrazolo[4,3-b]pyridin-6-yl)methyl]cyclohexyl]-[(3S)-3-(5-methylpyrazin-2-yl)-1,2-oxazolidin-2-yl]methanone] gave an IC50 of 80 nM.

The compound `COc1cc(CC2CCC(C(=O)N3OCC[C@H]3c3cnccn3)CC2)cn2nc(C)nc12` (stereo partly drawn) [compound 314, [4-[(8-methoxy-2-methyl-[1,2,4]triazolo[1,5-a]pyridin-6-yl)methyl]cyclohexyl]-[(3S)-3-pyrazin-2-yl-1,2-oxazolidin-2-yl]methanone] showed an IC50 in assay [1] of 35 nM. Compared with the last compound, the IC50 is about 2.3-fold lower.

`N#Cc1cc(F)cc([C@@H]2CCON2C(=O)[C@H]2CC[C@H](Cc3ccc(F)c(C#N)c3)CC2)c1` [compound 244, trans-5-[[4-[(3S)-3-(3-cyano-5-fluoro-phenyl)isoxazolidine-2-carbonyl]cyclohexyl]methyl]-2-fluoro-benzonitrile] came in with an IC50 in assay [1] of 20 nM.
